Data taken from PubChem BioAssay AID1963850 (Molecular Pharmacology Branch, DTP, NCI, 2024).

Tested on: 192522-019-R-J2-PDC complex tumor spheroid viability
Assay: Anticancer human tumor 192522-019-R-J2-PDC patient-derived colon adenocarcinoma cell line growth inhibition [POLQ]
Settings: for IC50: curve of first compound; for viability, T/C: stronger effect = lower value
Protocol: Multicellular complex tumor spheroid response to Polymerase (POL) inhibitors (novobiocin, ART-558, RP6685) in combination with a variety of drugs and investigational agents in selected tumor cell lines
The POL inhibitors (novobiocin, ART-558, and RP6685) were evaluated both individually and in combination with standard of care and investigational anticancer small molecules within a complex spheroid model of solid tumors. . Complex spheroids include a stromal component modeled by human endothelial cells (HUVEC) and fibroblasts modeled by human mesenchymal stem cells (MSCs). The concentration ranges selected for each drug and investigational agent were based upon clinically achievable concentrations if the clinical Cmax of the agent was known.
Compounds. The drugs and investigational agents: novobiocin (NSC847541), ART-558 (NSC835418), RP-6685 (NSC848927), peposertib (NSC802822), ceralasertib (NSC780249), elimusertib (NSC800525), camonsertib (NSC841442), AZD-1390 (NSC803789), olaparib (NSC753686), talazoparib (NSC767125), rucaparib (NSC756644), sotorasib (NSC818433), MRTX-1133 (NSC836407), SN-38 (NSC673596), topotecan (NSC609699), epotoside (NSC141540), doxorubicin (NSC123127), gemcitabine (NSC613327), 5-fluorouracil (NSC19893), paclitaxel (NSC125973), vemurafenib (NSC761431), MSA-2 (NSC828583), SN-011 (NSC837082), adavosertib (NSC754352), prexasertib (NSC758257), carboplatin (NSC241240) and oxaliplatin (NSC266046), were obtained from the National Cancer Institute (NCI) Developmental Therapeutics Program Chemical Repository (21). The FDA-approved anticancer drug set is available from the Developmental Therapeutics Program at https://dtp.cancer.gov/organization/dscb/obtaining/. […] The stock solutions were prepared in dimethyl sulfoxide (DMSO, Sigma-Aldrich, St. Louis, MO, cat. D2650), except for the platinum compounds which were prepared in saline (Quality Biological, Gaithersburg, MD, cat. 114-055-101), at 800-fold the tested concentration and stored at -70 degrees C prior to their use. All drugs and investigational agents were tested over a range starting from a high concentration at or near the clinical Cmax and decreasing in half-log increments. If the clinical Cmax for an agent had not been determined, the highest concentration tested was 10 microM, except for SN-38, which was tested at a high concentration of 1 microM.
Cell Culture. All cells were maintained in an incubator at 37 degrees C and 5% CO2 with 95% humidity. The PDC lines were cultured according to standard operating procedures established by the NCI PDMR (https://pdmr.cancer.gov). Table 3 of the manuscript, lists the cell lines along with the number of the three cell types plated to form the mct-spheroids and media for tumor cell growth. After thawing, all PDC lines, except 997537-175-T-J1-PDC and 415267-285-R-J2-PDC, were cultured in Matrigel-coated flasks prepared with a working solution of 1X Ham's F-12 nutrient mix, without supplementation (Thermo Fisher Scientific, cat. 11765054), 100 U/mL penicillin-streptomycin (Thermo Fisher Scientific, cat. 15140122), and 2.5% Matrigel (Corning Inc., Corning, NY, cat. 354248) for the first three passages. The two PDC lines 997537-175-T-J1-PDC and 415267-285-R-J2-PDC were cultured on uncoated flasks. The 857933-349-R-J2-PDC line was cultured in 6C/Colon 1B media containing advanced DMEM/F-12 (Thermo Fisher Scientific, cat. 12634028), 10 mM HEPES (Thermo Fisher Scientific, cat. 15630080), 1X GlutaMAX supplement (Thermo Fisher Scientific, cat. 35050061), 0.1 mg/mL primocin (InvivoGen, San Diego, CA, cat. ant-pm-2), 10% defined fetal bovine serum, heat inactivated (HyClone Laboratories Inc., Logan, UT, cat. SH30070.03HI), 50% L-WRN conditioned media (ATCC, cat. CRL-3276), 1.25 mM N-Acetyl-L-cysteine (Sigma-Aldrich, cat. A9165), 10 mM nicotinamide (Sigma-Aldrich, cat. N0636), 1X B-27 supplement (Thermo Fisher Scientific, cat. 17504044), 1X N-2 supplement (Thermo Fisher Scientific, cat. […]

[1] = second compound 0.0316 µM, first compound 0.0316 µM
[2] = second compound 0.0316 µM, first compound 0.1 µM
[3] = second compound 0.0316 µM, first compound 0.316 µM
[4] = second compound 0.0316 µM, first compound 1 µM
[5] = second compound 0.0316 µM, first compound 3.16 µM
[6] = second compound 0.0316 µM, first compound 10 µM
[7] = second compound 0.1 µM, first compound 0.0316 µM
[8] = second compound 0.1 µM, first compound 0.1 µM
[9] = second compound 0.1 µM, first compound 0.316 µM
[10] = second compound 0.1 µM, first compound 1 µM
[11] = second compound 0.1 µM, first compound 3.16 µM
[12] = second compound 0.1 µM, first compound 10 µM
[13] = second compound 0.316 µM, first compound 0.0316 µM
[14] = second compound 0.316 µM, first compound 0.1 µM
[15] = second compound 0.316 µM, first compound 0.316 µM
[16] = second compound 0.316 µM, first compound 1 µM
[17] = second compound 0.316 µM, first compound 3.16 µM
[18] = second compound 0.316 µM, first compound 10 µM
[19] = second compound 1 µM, first compound 0.0316 µM
[20] = second compound 1 µM, first compound 0.1 µM
[21] = second compound 1 µM, first compound 0.316 µM
[22] = second compound 1 µM, first compound 1 µM
[23] = second compound 1 µM, first compound 3.16 µM
[24] = second compound 1 µM, first compound 10 µM
[25] = second compound 3.16 µM, first compound 0.0316 µM
[26] = second compound 3.16 µM, first compound 0.1 µM
[27] = second compound 3.16 µM, first compound 0.316 µM
[28] = second compound 3.16 µM, first compound 1 µM
[29] = second compound 3.16 µM, first compound 3.16 µM
[30] = second compound 3.16 µM, first compound 10 µM
[31] = second compound 10 µM, first compound 0.0316 µM
[32] = second compound 10 µM, first compound 0.1 µM
[33] = second compound 10 µM, first compound 0.316 µM
[34] = second compound 10 µM, first compound 1 µM
[35] = second compound 10 µM, first compound 3.16 µM
[36] = second compound 10 µM, first compound 10 µM
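Note: spheroids exposed to drugs for seven days before reading.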
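Throughout, for viability, T/C: 100% = DMSO vehicle control viability in luminescence.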

With `COc1cccc2c1C(=O)c1c(O)c3c(c(O)c1C2=O)CC(O)(C(=O)CO)CC3OC1CC(N)C(O)C(C)O1` (stereo unspecified) + Nc1ccc(C#CCN(C(=O)Cc2ncc(C(F)(F)F)cc2C(F)(F)F)c2ccc(F)cc2)nn1 the IC50 (second compound 0.0316 µM) was over 10 µM, the IC50 (second compound 0.1 µM) was over 10 µM and the IC50 (second compound 0.316 µM) was over 10 µM. The IC50 (second compound 1 µM) was over 10 µM, the IC50 (second compound 3.16 µM) was over 10 µM and the IC50 (second compound 10 µM) was over 10 µM. The viability, T/C [1] was 100%, the viability, T/C [2] was 85% and the viability, T/C [3] was 79.4%. For the same molecule, the viability, T/C [4] was 75.7%, the viability, T/C [5] was 74% and the viability, T/C [6] was 58.9%. The viability, T/C [7] was 108%, the viability, T/C [8] was 80.4% and the viability, T/C [9] was 81.6%. For the same molecule, the viability, T/C [10] was 79.9%, the viability, T/C [11] was 68.4% and the viability, T/C [12] was 62.4%. It also gave a viability, T/C [13] of 100%, a viability, T/C [14] of 89% and a viability, T/C [15] of 80.1%. It also gave a viability, T/C [16] of 81.5%, a viability, T/C [17] of 73.5% and a viability, T/C [18] of 62.7%. It also gave a viability, T/C [19] of 88.6%, a viability, T/C [20] of 81.9% and a viability, T/C [21] of 81.2%. It also gave a viability, T/C [22] of 71.2%, a viability, T/C [23] of 67.8% and a viability, T/C [24] of 58%. It also gave a viability, T/C [25] of 96.7%, a viability, T/C [26] of 85% and a viability, T/C [27] of 87.9%. It also gave a viability, T/C [28] of 75.4%, a viability, T/C [29] of 69.2% and a viability, T/C [30] of 58.1%. The viability, T/C [31] was 92.4%, the viability, T/C [32] was 81.2% and the viability, T/C [33] was 94.7%. It also gave a viability, T/C [34] of 71.5%, a viability, T/C [35] of 60.4% and a viability, T/C [36] of 49.1%.
`Nc1ccn(C2OC(CO)C(O)C2(F)F)c(=O)n1` (stereo unspecified) + Nc1ccc(C#CCN(C(=O)Cc2ncc(C(F)(F)F)cc2C(F)(F)F)c2ccc(F)cc2)nn1 gave an IC50 (second compound 0.0316 µM) of over 10 µM, an IC50 (second compound 0.1 µM) of over 10 µM and an IC50 (second compound 0.316 µM) of over 10 µM. For the same molecule, the IC50 (second compound 1 µM) was over 10 µM, the IC50 (second compound 3.16 µM) was over 10 µM and the IC50 (second compound 10 µM) was over 10 µM. For the same molecule, the viability, T/C [1] was 100%, the viability, T/C [2] was 96.1% and the viability, T/C [3] was 80.6%. It also gave a viability, T/C [4] of 80.3%, a viability, T/C [5] of 76.3% and a viability, T/C [6] of 69.5%. The viability, T/C [7] was 102%, the viability, T/C [8] was 94% and the viability, T/C [9] was 81%. For the same molecule, the viability, T/C [10] was 76.8%, the viability, T/C [11] was 80.9% and the viability, T/C [12] was 66.8%. It also gave a viability, T/C [13] of 112%, a viability, T/C [14] of 90.9% and a viability, T/C [15] of 82.2%. For the same molecule, the viability, T/C [16] was 80.4%, the viability, T/C [17] was 83.5% and the viability, T/C [18] was 69.7%. It also gave a viability, T/C [19] of 105%, a viability, T/C [20] of 94.7% and a viability, T/C [21] of 88.4%. The viability, T/C [22] was 82.9%, the viability, T/C [23] was 82.4% and the viability, T/C [24] was 69.8%. It also gave a viability, T/C [25] of 104%, a viability, T/C [26] of 91.4% and a viability, T/C [27] of 85.1%. The viability, T/C [28] was 82.3%, the viability, T/C [29] was 83.8% and the viability, T/C [30] was 71.4%. For the same molecule, the viability, T/C [31] was 109%, the viability, T/C [32] was 98.5% and the viability, T/C [33] was 95.3%. The viability, T/C [34] was 84.6%, the viability, T/C [35] was 84.4% and the viability, T/C [36] was 72.2%.
`O=c1[nH]cc(F)c(=O)[nH]1` + Nc1ccc(C#CCN(C(=O)Cc2ncc(C(F)(F)F)cc2C(F)(F)F)c2ccc(F)cc2)nn1 gave an IC50 (second compound 0.0316 µM) of over 10 µM, an IC50 (second compound 0.1 µM) of over 10 µM and an IC50 (second compound 0.316 µM) of over 10 µM. For the same molecule, the IC50 (second compound 1 µM) was over 10 µM, the IC50 (second compound 3.16 µM) was over 10 µM and the IC50 (second compound 10 µM) was over 10 µM. It also gave a viability, T/C [1] of 99.2%, a viability, T/C [2] of 98.4% and a viability, T/C [3] of 92.5%. The viability, T/C [4] was 90.4%, the viability, T/C [5] was 96.4% and the viability, T/C [6] was 90.3%. For the same molecule, the viability, T/C [7] was 104%, the viability, T/C [8] was 101% and the viability, T/C [9] was 95%. The viability, T/C [10] was 95.9%, the viability, T/C [11] was 91.2% and the viability, T/C [12] was 85.6%. It also gave a viability, T/C [13] of 104%, a viability, T/C [14] of 93.5% and a viability, T/C [15] of 96.4%. For the same molecule, the viability, T/C [16] was 85.3%, the viability, T/C [17] was 88.2% and the viability, T/C [18] was 96.4%. For the same molecule, the viability, T/C [19] was 104%, the viability, T/C [20] was 98.1% and the viability, T/C [21] was 98.5%. It also gave a viability, T/C [22] of 92.2%, a viability, T/C [23] of 96% and a viability, T/C [24] of 89.2%. The viability, T/C [25] was 102%, the viability, T/C [26] was 98.9% and the viability, T/C [27] was 92.8%. For the same molecule, the viability, T/C [28] was 96.6%, the viability, T/C [29] was 95.8% and the viability, T/C [30] was 90.1%. It also gave a viability, T/C [31] of 116%, a viability, T/C [32] of 95.1% and a viability, T/C [33] of 91.1%. It also gave a viability, T/C [34] of 85.9%, a viability, T/C [35] of 93.5% and a viability, T/C [36] of 90.5%.
